Results published in patent US5573748A, “Radiolabeled technetium chelates for use in renal function determinations” (University of Utah Research Foundation, priority 1994, dated 1996).

Key:
[1] = Biodistribution in normal mice after intravenous injection (renal uptake); assay type: in vivo
Procedure: Tc-99m-MAGGG was administered simultaneously with I-131 OIH (as a reference standard) to six mice in two groups. Each mouse was injected intravenously with 0.1 milliliters of a preparation containing 0.5 microcuries of Tc-99m-MAGGG and 0.2 microcuries of I-131 OIH, and then placed into a metabolic cage capable of collecting excreted urine.
Ten minutes after injection, each mouse's urethra was ligated and the mouse was sacrificed by chloroform vapor; various samples were then taken to determine biodistribution of radiolabeled material. The results of these samples are shown in Table I. Similar measurements, shown in Table II, were taken on the second group of mice 120 minutes after injection.

[2] = Biodistribution in probenicid-treated mice (inhibited renal tubular transport); assay type: in vivo; conditions: probenicid-treated mice (50 mg/kg), 10 minutes after injection
Procedure: In order to test the biodistribution of Tc-99m-MAGGG in mice having inhibited renal tubular transport, six mice were injected with a solution of probenicid at the rate of 50 milligrams of probenicid per kilogram of body weight. Ten minutes later, each mouse was injected with 0.1 milliliters of a solution containing 0.5 microcuries of Tc-99m-MAGGG and 0.2 microcuries of I-131 OIH. After an additional ten minutes, each mouse was sacrificed and various samples taken to determine biodistribution of radiolabeled material.

[3] = Renal excretion in humans (normal volunteers); assay type: in vivo
Procedure: The renal excretion of Tc-99m-MAGGG in humans was obtained based upon experiments on normal volunteers. For purposes of comparison, tests were also conducted using I-131 OIH either immediately before or after the study using Tc-99m-MAGGG.
In Example 6, the Tc-99m-MAGGG used was prepared with stannous reduction similar to the procedure set forth in Example 2, with glucoheptonate being used as an intermediate exchange ligand. In Example 7, dithionite was used as a reducing agent instead of using stannous reduction. Both examples provided Tc-99m-MAGGG having the same major peak on a HPLC column.
In both examples, the subject was injected with a dosage containing about 15 millicuries of Tc-99m-MAGGG. The comparative tests utilizing I-131 OIH involved administration of about 300 microcuries of I-131 OIH. In both instances, imaging of the kidneys ureters, and blood pool was conducted for a period of about 30 minutes, following which the count rate in the bladder was measured.
Thereafter, the bladder was voided, and an additional image was taken to detect the presence of residual radioactivity in order to allow determination of the percent of urine radioactivity at 30 minutes. Measurements were also taken at 3 hours.

[4] = cited from earlier work

Blood ([1]; 10 minutes after injection) | Intestine ([1]; 10 minutes after injection) | Kidneys ([1]; 10 minutes after injection) | Liver ([1]; 10 minutes after injection) | Stomach ([1]; 10 minutes after injection) | Urine ([1]; 10 minutes after injection) | Blood ([1]; 120 minutes after injection) | Intestine ([1]; 120 minutes after injection) | Kidneys ([1]; 120 minutes after injection) | Liver ([1]; 120 minutes after injection) | Stomach ([1]; 120 minutes after injection) | Urine ([1]; 120 minutes after injection) | level in the urine relative to corresponding level of I-131 OIH ([1]; 10 minutes) | level in the urine relative to corresponding level of I-131 OIH ([1]; 120 minutes) | Compound | further results
4.1 percentage of radioactive agen | 1.0 percentage of radioactive agen | 2.2 percentage of radioactive agen | 1.8 percentage of radioactive agen | 0.5 percentage of radioactive agen | 74.4 percentage of radioactive agen | 0.14 percentage of radioactive agen | 0.16 percentage of radioactive agen | 0.06 percentage of radioactive agen | 0.11 percentage of radioactive agen | 0.98 percentage of radioactive agen | 96.0 percentage of radioactive agen |  |  | O=C(O)CNC(=O)c1ccccc1[131I] [I-131 OIH, I-131 ortho-iodohippurate, reference compound] | Blood [2]: 7.0 percentage of radioactive agen; Intestine [2]: 2.0 percentage of radioactive agen; Kidneys [2]: 3.6 percentage of radioactive agen; Liver [2]: 3.7 percentage of radioactive agen; Stomach [2]: 0.75 percentage of radioactive agen; Urine [2]: 59.2 percentage of radioactive agen; urine radioactivity (renal excretion) ([3]; 30 minutes): 65.5 ± 6.3 percentage of radioactive agen; urine radioactivity (renal excretion) ([3]; 3 hours): 93.5 ± 3.2 percentage of radioactive agen; renal extraction efficiency ([4]; in vivo): 65%-80
 |  |  |  |  |  |  |  |  |  |  |  |  |  | Nc1ccc(C(=O)NCC(=O)O)cc1 [PAH, para-aminohippuric acid] | fraction in the blood removed by the kidneys ([4]; in vivo): ~90%; fraction removed from the plasma by active secretion into the tubules ([4]; in vivo): ~70%
 |  |  |  |  |  |  |  |  |  |  |  |  |  | Tc-99m diethylenetriaminepentaacetic acid [Tc-99m-DTPA] | maximum extraction efficiency ([4]; glomerular filtration only): 20-25%
 |  |  |  |  |  |  |  |  |  |  |  |  |  | Tc-99m-N,N'-bis(mercaptoacetyl)-2,3-diaminopropanoate [Tc-99m-CO2 -DADS-A] | excreted less effectively than I-131 OIH ([4]; in vivo): ~20%
 |  |  |  |  |  |  |  |  |  |  |  |  |  | Tc-99m-N,N'-bis(mercaptoacetyl)-2,3-diaminopropanoate [Tc-99m-CO2 -DADS-B] | removal by the kidneys compared with Tc-99m-CO2-DADS-A isomer ([4]; in vivo): far less efficiently removed by the kidneys
2.6 percentage of radioactive agen | 1.6 percentage of radioactive agen | 5.2 percentage of radioactive agen | 2.6 percentage of radioactive agen | .2 percentage of radioactive agen | 75.1 percentage of radioactive agen | .2 percentage of radioactive agen | 2.2 percentage of radioactive agen | .3 percentage of radioactive agen | .1 percentage of radioactive agen | .2 percentage of radioactive agen | 96.0 percentage of radioactive agen | 106.4% | 102.2% | Tc-99m-mercapoacetylglycylglycylalanine [Tc-99m-MAGG-Alanine] | 
2.6 percentage of radioactive agen | 1.1 percentage of radioactive agen | 3.5 percentage of radioactive agen | 2.9 percentage of radioactive agen | 0.1 percentage of radioactive agen | 79.9 percentage of radioactive agen | 0.03 percentage of radioactive agen | 1.2 percentage of radioactive agen | 0.06 percentage of radioactive agen | 0.08 percentage of radioactive agen | 0.02 percentage of radioactive agen | 98.5 percentage of radioactive agen | 107.3% | 102.6% | Tc-99m-mercaptoacetylglycylglycylglycine [Tc-99m-MAGGG] | Blood [2]: 6.0 percentage of radioactive agen; Intestine [2]: 1.6 percentage of radioactive agen; Kidneys [2]: 5.4 percentage of radioactive agen; Liver [2]: 5.9 percentage of radioactive agen; Stomach [2]: 0.24 percentage of radioactive agen; Urine [2]: 64.7 percentage of radioactive agen; urine radioactivity (renal excretion) ([3]; 30 minutes): 71.8 ± 4.2 percentage of radioactive agen; urine radioactivity (renal excretion) ([3]; 3 hours): 98.6 ± 1.6 percentage of radioactive agen
2.7 percentage of radioactive agen | 10.3 percentage of radioactive agen | 3.3 percentage of radioactive agen | 9.9 percentage of radioactive agen | .2 percentage of radioactive agen | 58.4 percentage of radioactive agen | .04 percentage of radioactive agen | 16.0 percentage of radioactive agen | .2 percentage of radioactive agen | 1.1 percentage of radioactive agen | .05 percentage of radioactive agen | 82.5 percentage of radioactive agen | 86.7% | 87.6% | Tc-99m-mercaptoacetylglycylglycylglycylglycine [Tc-99m-MAGGGG] | 
